The values that follow come from patent publication US20230301958A1, “SATRAPLATIN FOR USE IN THE TREATMENT OF LYMPHOID NEOPLASMS” (priority 2020, published 2023).

One data set concerns DLBCL cell lines. The data set can be described thus: CellTiter-Glo luminescent cell viability assay, DLBCL cell lines. The data set is classed as cell-based, human. Conditions: 72h incubation, CTG assay. On the procedure: (§1) Hereto, the 50% inhibitory concentration (IC50) was determined in said cancer cell lines using the CellTiter-Glo® (CTG) luminescent cell viability assay after a 72h incubation with different concentrations of the two drugs ranging from 10 nM to 100 uM.
(§2) All cell lines were cultured in the media supplemented with 10-15% FBS, at a temperature of 37° C., 5% CO2 and 95% humidity. Cell viability was measured using the CTG Luminescent Cell Viability Assay by standard procedures. Satraplatin was purchased from MedChemExpress (China) and cisplatin from Qilu Pharm (China), respectively. 1 mM solution of both drugs were established for storage at -20° C. as previously described (Wosikowski K et al., Cancer Chemother Pharmacol (2007) 60(4):589-600).
(§3) Cells were harvested during the logarithmic growth period and count cell number using Count-star. Cell concentrations were adjusted to 4.44×10^4 cells/mL with the respective culture medium. […] Luminescence was recorded using EnVision Multi Label Reader.
(§4) In order to calculate absolute IC50 (EC50), a dose-response curve was fitted using a nonlinear regression model with a sigmoidal dose response. […] The absolute IC50 (EC50) was calculated according to the dose-response curve generated by GraphPad Prism 5.0. The standard deviation was calculated for each dose level and each cell line and is indicated by the bars.
Background: Cellular ATP, detected with luciferase, serves as a proxy for viable cell number.

For data set [1] the following is noted: in vivo; cited from earlier work.
Data set [2] deals with lymphoma and myeloma cell lines. The data set can be described thus: CellTiter-Glo luminescent cell viability assay, panel of 41 lymphoma and multiple myeloma cell lines. The data set is classed as cell-based, human. On the procedure: as §1, §2
Cells were harvested during the logarithmic growth period and count cell number using Count-star. Cell concentrations were adjusted to 4.44×10^4 cells/mL with the respective culture medium. Then, 90 µL cell suspensions were added in triplicate to two 96-well plates (plates A and B) with the final cell density of 4×10^3 cells/well. […] For that purpose, plates were equilibrated at RT for approximately 30 min. Then, 50 µL CTG reagent was added to each well. The content was mixed for 5 min on an orbital shaker to induce cell lysis and the plate incubated at RT for 20 min to stabilize luminescent signal. Luminescence was recorded using EnVision Multi Label Reader.
In order to calculate absolute IC50 (EC50), a dose-response curve was fitted using a nonlinear regression model with a sigmoidal dose response. The formula for calculating surviving rate is: The surviving rate (%) = (LumTest article-LumMedium control)/(LumNon-treated-LumMedium control)×100%. The absolute IC50 (EC50) was calculated according to the dose-response curve generated by GraphPad Prism 5.0. The standard deviation was calculated for each dose level and each cell line and is indicated by the bars.

The subject of data set [3] is B-cell lymphoma cell lines (Burkitt lymphoma, mantle cell lymphoma, DLBCL). The data set can be described thus: CellTiter-Glo luminescent cell viability assay, B-cell lymphoma cell lines. The class given is cell-based, human. To be noted: mantle cell lymphoma and DLBCL cell lines, FIGS. 1-3. The protocol: as §1, §2, §3, §4
Data set [4] deals with metastatic prostate cancer. Conditions: SPARC trial, patients receiving satraplatin; cited from earlier work.
For data set [5], the system named is multiple myeloma cell lines. In words: CellTiter-Glo luminescent cell viability assay, multiple myeloma cell lines. The class given is cell-based, human. To be noted: FIG. 5. The protocol:
as §1, §2, §3, §4

Another data set relates to OCI-LY7 cells. In words: CellTiter-Glo luminescent cell viability assay, OCI-LY-7. The data set is classed as cell-based, human. Conditions: DLBCL cell line, 72h. The protocol: as §1, §2, §3, §4
A further data set deals with OCI Ly-3 cell line. The data set can be described thus: CellTiter-Glo luminescent cell viability assay, OCI-LY-3. The data set is classed as cell-based, human. Conditions: PCNSL-like DLBCL cell line, FIG. 3K, 72h. The protocol: as §1, §2, §3, §4
The conditions of data set [6]: in vivo, po; cited from earlier work.
Data set [7] relates to T-cell lymphoma cell lines. In words: CellTiter-Glo luminescent cell viability assay, T-cell lymphoma cell lines. Conditions: particularly ALK+ ALCL, FIG. 4A-4D. The data set is classed as cell-based, human. The protocol: as §1, §2, §3, §4

In the case of `N.N.[Cl][Pt][Cl]` [cisplatin], in the data set on DLBCL cell lines, the “IC50 values in DLBCL cell lines” value is “low micromolar or even sub-molar”.

For `CC(=O)[O][Pt]([NH2])([Cl])([Cl])([NH]C1CCCCC1)[O]C(C)=O` [satraplatin, bis (acetato) ammine dichloro (cyclohexylamine) platinum (IV)], the CNS penetration result in data set [1] is listed as “clinically proven meaningful CNS penetration”. Moreover, the “relative sensitivity of certain cell lines” value in [2] (DOHH2, OCI Ly19, SUDHL5, OCI Ly3, Toledo, Z138, Daudi, SUDHL1, HuT78 cell lines, FIG. 6) is recorded as “particularly sensitive”. Further, the “IC 50 values, killing of lymphoma cell lines” value in data set [2] (FIGS. 1-6, 72h incubation) is reported as “low micromolar concentrations or even lower”. In [2] (all tested cell lines), the “sensitivity of all cell lines described” value is on record as “sensitive”. For the same compound, the “IC50 values in DLBCL cell lines” value in the data set with DLBCL cell lines is “low micromolar or even sub-molar”. Also, the “inducing cell death, compared to cisplatin” value in data set [3], in data set [5] and in data set [7] was “at least equivalent to cisplatin” each time. Moreover, the “patients showing a relevant PSA-response (decline of more than 50%)” value in data set [4] is 25%. In addition, in the data set with OCI-LY7 cells, the “killing of OCI-LY7 cells compared to cisplatin” value is “significantly superior”. Moreover, the “killing of OCI Ly-3” value in the data set on OCI Ly-3 cell line was “very effectively killed”. Further, the “nephro- or neurotoxicity in clinical trials” value in data set [6] is given as “no or not relevant nephro- or neurotoxicity”.
